Reference: PMC11842588, “A first-in-class selective inhibitor of ERK1/2 and ERK5 overcomes drug resistance with a single-molecule strategy” (Signal Transduction and Targeted Therapy, 2025)

Assays:
Experiment in all cases: Kinase profiling
Format in all cases: biochemical
NEK2(h) = target: T1, NEK2(h) (Homo sapiens, UniProt P51955)
T1 construct: purchased Eurofins Cerep SA (KinaseProfiler)
Protocol: (§1) 380 kinases inhibitory activities of SKLB-D18 were conducted by Eurofins Cerep SA. The result was illustrated by kinase tree (http://www.kinhub.org/kinmap/).

MLK2(h) = target: T2, MLK2(h) (Homo sapiens, UniProt Q02779)
T2 construct: purchased Eurofins Cerep SA (KinaseProfiler)
Protocol: as §1

ULK1(h) = target: T3, ULK1(h) (Homo sapiens, UniProt O75385)
T3 construct: purchased Eurofins Cerep SA (KinaseProfiler)
Protocol: as §1

GCN2(h) = target: T4, GCN2(h) (Homo sapiens, UniProt Q9P2K8)
T4 construct: purchased Eurofins Cerep SA (KinaseProfiler)
Protocol: as §1

Rsk1(h) = target: T5, Rsk1(h) (Homo sapiens, UniProt Q15418)
T5 construct: purchased Eurofins Cerep SA (KinaseProfiler)
Protocol: as §1

PhKγ1(h) = target: T6, PhKγ1(h) (Homo sapiens, UniProt Q16816)
T6 construct: purchased Eurofins Cerep SA (KinaseProfiler)
Protocol: as §1

SIK(h) = target: T7, SIK(h) (Homo sapiens, UniProt P57059)
T7 construct: purchased Eurofins Cerep SA (KinaseProfiler)
Protocol: as §1

SBK1(h) = target: T8, SBK1(h) (Homo sapiens, UniProt Q52WX2)
T8 construct: purchased Eurofins Cerep SA (KinaseProfiler)
Protocol: as §1

CLK4(h) = target: T9, CLK4(h) (Homo sapiens, UniProt Q9HAZ1)
T9 construct: purchased Eurofins Cerep SA (KinaseProfiler)
Protocol: as §1

MAPK7(h) = target: T10, MAPK7(h) (Homo sapiens, UniProt Q13164)
T10 construct: purchased Eurofins Cerep SA (KinaseProfiler)
Protocol: as §1

KDR(h) = target: T11, KDR(h) (Homo sapiens, UniProt P35968)
T11 construct: purchased Eurofins Cerep SA (KinaseProfiler)
Protocol: as §1

TSSK4(h) = target: T12, TSSK4(h) (Homo sapiens, UniProt Q6SA08)
T12 construct: purchased Eurofins Cerep SA (KinaseProfiler)
Protocol: as §1

CDKL4(h) = target: T13, CDKL4(h) (Homo sapiens, UniProt Q5MAI5)
T13 construct: purchased Eurofins Cerep SA (KinaseProfiler)
Protocol: as §1

PRK1(h) = target: T14, PRK1(h) (Homo sapiens, UniProt Q16512)
T14 construct: purchased Eurofins Cerep SA (KinaseProfiler)
Protocol: as §1

DDR2(h) = target: T15, DDR2(h) (Homo sapiens, UniProt Q16832)
T15 construct: purchased Eurofins Cerep SA (KinaseProfiler)
Protocol: as §1

TRB2(h) = target: T16, TRB2(h) (Homo sapiens, UniProt Q92519)
T16 construct: purchased Eurofins Cerep SA (KinaseProfiler)
Protocol: as §1

Ron(h) = target: T17, Ron(h) (Homo sapiens, UniProt Q04912)
T17 construct: purchased Eurofins Cerep SA (KinaseProfiler)
Protocol: as §1

TAO3(h) = target: T18, TAO3(h) (Homo sapiens, UniProt Q9H2K8)
T18 construct: purchased Eurofins Cerep SA (KinaseProfiler)
Protocol: as §1

Rsk4(h) = target: T19, Rsk4(h) (Homo sapiens, UniProt Q9UK32)
T19 construct: purchased Eurofins Cerep SA (KinaseProfiler)
Protocol: as §1

IRAK1(h) = target: T20, IRAK1(h) (Homo sapiens, UniProt P51617)
T20 construct: purchased Eurofins Cerep SA (KinaseProfiler)
Protocol: as §1

PRKG2(h) = target: T21, PRKG2(h) (Homo sapiens, UniProt Q13237)
T21 construct: purchased Eurofins Cerep SA (KinaseProfiler)
Protocol: as §1

CaMKIIβ(h) = target: T22, CaMKIIβ(h) (Homo sapiens, UniProt Q13554)
T22 construct: purchased Eurofins Cerep SA (KinaseProfiler)
Protocol: as §1

CDK18/cyclinY(h) = target: T23, CDK18/cyclinY(h) (Homo sapiens, UniProt Q07002)
T23 construct: purchased Eurofins Cerep SA (KinaseProfiler)
Protocol: as §1

GRK1(h) = target: T24, GRK1(h) (Homo sapiens, UniProt Q15835)
T24 construct: purchased Eurofins Cerep SA (KinaseProfiler)
Protocol: as §1

PRK2(h) = target: T25, PRK2(h) (Homo sapiens, UniProt Q16513)
T25 construct: purchased Eurofins Cerep SA (KinaseProfiler)
Protocol: as §1

EphB4(h) = target: T26, EphB4(h) (Homo sapiens, UniProt P54760)
T26 construct: purchased Eurofins Cerep SA (KinaseProfiler)
Protocol: as §1

CaMKK1(h) = target: T27, CaMKK1(h) (Homo sapiens, UniProt Q8N5S9)
T27 construct: purchased Eurofins Cerep SA (KinaseProfiler)
Protocol: as §1

NEK4(h) = target: T28, NEK4(h) (Homo sapiens, UniProt P51957)
T28 construct: purchased Eurofins Cerep SA (KinaseProfiler)
Protocol: as §1

Tec(h) activated = target: T29, Tec(h) activated (Homo sapiens, UniProt P42680)
T29 construct: purchased Eurofins Cerep SA (KinaseProfiler)
Protocol: as §1

Lck(h) = target: T30, Lck(h) (Homo sapiens, UniProt P06239)
T30 construct: purchased Eurofins Cerep SA (KinaseProfiler)
Protocol: as §1

Axl(h) = target: T31, Axl(h) (Homo sapiens, UniProt P30530)
T31 construct: purchased Eurofins Cerep SA (KinaseProfiler)
Protocol: as §1

DYRK1B(h) = target: T32, DYRK1B(h) (Homo sapiens, UniProt Q9Y463)
T32 construct: purchased Eurofins Cerep SA (KinaseProfiler)
Protocol: as §1

NDR2(h) = target: T33, NDR2(h) (Homo sapiens, UniProt Q9Y2H1)
T33 construct: purchased Eurofins Cerep SA (KinaseProfiler)
Protocol: as §1

CK1ε(h) = target: T34, CK1ε(h) (Homo sapiens, UniProt P49674)
T34 construct: purchased Eurofins Cerep SA (KinaseProfiler)
Protocol: as §1

HRI(h) = target: T35, HRI(h) (Homo sapiens, UniProt Q9BQI3)
T35 construct: purchased Eurofins Cerep SA (KinaseProfiler)
Protocol: as §1

Lyn(h) = target: T36, Lyn(h) (Homo sapiens, UniProt P07948)
T36 construct: purchased Eurofins Cerep SA (KinaseProfiler)
Protocol: as §1

PDGFRα(h) = target: T37, PDGFRα(h) (Homo sapiens, UniProt P16234)
T37 construct: purchased Eurofins Cerep SA (KinaseProfiler)
Protocol: as §1

Fms(h) = target: T38, Fms(h) (Homo sapiens, UniProt P07333)
T38 construct: purchased Eurofins Cerep SA (KinaseProfiler)
Protocol: as §1

TTBK1(h) = target: T39, TTBK1(h) (Homo sapiens, UniProt Q5TCY1)
T39 construct: purchased Eurofins Cerep SA (KinaseProfiler)
Protocol: as §1

PKCε(h) = target: T40, PKCε(h) (Homo sapiens, UniProt Q02156)
T40 construct: purchased Eurofins Cerep SA (KinaseProfiler)
Protocol: as §1

CLK3(h) = target: T41, CLK3(h) (Homo sapiens, UniProt P49761)
T41 construct: purchased Eurofins Cerep SA (KinaseProfiler)
Protocol: as §1

T39 sequence (Q5TCY1 whole entry): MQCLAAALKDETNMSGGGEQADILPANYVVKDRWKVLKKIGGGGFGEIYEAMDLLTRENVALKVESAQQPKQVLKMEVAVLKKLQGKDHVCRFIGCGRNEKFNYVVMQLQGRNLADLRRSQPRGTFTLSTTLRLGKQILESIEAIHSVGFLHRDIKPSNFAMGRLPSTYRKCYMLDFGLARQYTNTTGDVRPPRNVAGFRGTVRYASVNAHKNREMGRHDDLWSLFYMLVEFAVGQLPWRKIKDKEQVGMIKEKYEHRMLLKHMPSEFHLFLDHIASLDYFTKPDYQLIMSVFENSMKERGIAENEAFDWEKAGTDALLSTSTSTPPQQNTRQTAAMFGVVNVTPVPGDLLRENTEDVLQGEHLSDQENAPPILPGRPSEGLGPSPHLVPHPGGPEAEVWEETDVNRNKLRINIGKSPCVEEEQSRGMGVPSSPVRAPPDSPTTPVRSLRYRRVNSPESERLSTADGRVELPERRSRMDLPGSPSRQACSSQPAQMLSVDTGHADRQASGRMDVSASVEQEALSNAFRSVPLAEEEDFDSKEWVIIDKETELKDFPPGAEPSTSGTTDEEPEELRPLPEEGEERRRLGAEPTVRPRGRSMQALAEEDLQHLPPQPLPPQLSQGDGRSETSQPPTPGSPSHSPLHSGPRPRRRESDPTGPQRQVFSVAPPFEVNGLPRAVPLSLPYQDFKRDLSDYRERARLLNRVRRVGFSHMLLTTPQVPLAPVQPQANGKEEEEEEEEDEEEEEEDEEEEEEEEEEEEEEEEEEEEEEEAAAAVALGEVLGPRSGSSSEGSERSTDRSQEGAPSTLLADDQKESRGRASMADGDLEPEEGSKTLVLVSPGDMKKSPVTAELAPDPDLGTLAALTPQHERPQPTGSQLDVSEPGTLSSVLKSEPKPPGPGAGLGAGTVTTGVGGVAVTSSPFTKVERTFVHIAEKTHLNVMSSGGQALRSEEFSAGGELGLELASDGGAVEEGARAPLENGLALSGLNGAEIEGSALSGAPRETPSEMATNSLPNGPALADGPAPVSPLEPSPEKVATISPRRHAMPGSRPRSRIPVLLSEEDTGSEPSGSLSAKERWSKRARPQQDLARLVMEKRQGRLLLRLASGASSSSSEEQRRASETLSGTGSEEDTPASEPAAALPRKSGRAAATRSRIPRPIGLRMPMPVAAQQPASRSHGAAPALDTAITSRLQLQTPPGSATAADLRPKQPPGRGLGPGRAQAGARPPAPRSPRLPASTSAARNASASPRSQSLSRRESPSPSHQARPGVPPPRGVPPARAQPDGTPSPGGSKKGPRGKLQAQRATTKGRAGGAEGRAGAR
T36 sequence (P07948 whole entry): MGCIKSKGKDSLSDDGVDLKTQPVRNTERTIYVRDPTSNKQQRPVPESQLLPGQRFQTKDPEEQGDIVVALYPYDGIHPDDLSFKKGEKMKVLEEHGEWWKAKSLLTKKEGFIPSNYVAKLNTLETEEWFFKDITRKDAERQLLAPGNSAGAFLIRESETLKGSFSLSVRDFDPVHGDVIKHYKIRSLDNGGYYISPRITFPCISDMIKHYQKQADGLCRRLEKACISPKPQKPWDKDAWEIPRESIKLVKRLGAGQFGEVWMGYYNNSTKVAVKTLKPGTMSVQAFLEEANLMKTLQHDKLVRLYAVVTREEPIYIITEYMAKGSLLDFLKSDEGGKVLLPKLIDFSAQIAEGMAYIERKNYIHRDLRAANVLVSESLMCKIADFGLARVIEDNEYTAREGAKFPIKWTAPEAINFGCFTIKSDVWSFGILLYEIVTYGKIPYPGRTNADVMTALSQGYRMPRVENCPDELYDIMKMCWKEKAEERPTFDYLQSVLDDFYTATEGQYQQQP
T16 sequence (Q92519 whole entry): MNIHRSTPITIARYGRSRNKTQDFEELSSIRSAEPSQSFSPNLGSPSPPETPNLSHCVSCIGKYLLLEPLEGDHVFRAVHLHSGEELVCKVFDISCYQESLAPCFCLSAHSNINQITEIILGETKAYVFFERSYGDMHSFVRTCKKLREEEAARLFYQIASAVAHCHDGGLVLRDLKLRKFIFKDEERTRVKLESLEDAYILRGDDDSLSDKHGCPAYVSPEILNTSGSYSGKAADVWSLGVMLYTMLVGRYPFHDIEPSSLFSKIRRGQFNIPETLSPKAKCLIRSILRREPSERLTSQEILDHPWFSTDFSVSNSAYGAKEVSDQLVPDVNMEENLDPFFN
T8 sequence (Q52WX2 whole entry): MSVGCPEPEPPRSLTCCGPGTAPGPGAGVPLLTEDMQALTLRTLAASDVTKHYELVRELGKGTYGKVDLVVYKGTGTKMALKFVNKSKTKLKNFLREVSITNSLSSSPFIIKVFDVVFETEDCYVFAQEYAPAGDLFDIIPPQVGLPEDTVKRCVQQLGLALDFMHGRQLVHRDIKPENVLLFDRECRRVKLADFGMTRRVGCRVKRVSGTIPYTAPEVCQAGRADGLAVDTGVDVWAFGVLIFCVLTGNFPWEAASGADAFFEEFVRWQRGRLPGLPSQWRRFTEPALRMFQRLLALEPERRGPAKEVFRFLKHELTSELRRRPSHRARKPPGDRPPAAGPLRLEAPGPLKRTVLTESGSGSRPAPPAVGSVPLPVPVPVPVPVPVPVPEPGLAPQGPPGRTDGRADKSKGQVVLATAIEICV
T10 sequence (Q13164 whole entry): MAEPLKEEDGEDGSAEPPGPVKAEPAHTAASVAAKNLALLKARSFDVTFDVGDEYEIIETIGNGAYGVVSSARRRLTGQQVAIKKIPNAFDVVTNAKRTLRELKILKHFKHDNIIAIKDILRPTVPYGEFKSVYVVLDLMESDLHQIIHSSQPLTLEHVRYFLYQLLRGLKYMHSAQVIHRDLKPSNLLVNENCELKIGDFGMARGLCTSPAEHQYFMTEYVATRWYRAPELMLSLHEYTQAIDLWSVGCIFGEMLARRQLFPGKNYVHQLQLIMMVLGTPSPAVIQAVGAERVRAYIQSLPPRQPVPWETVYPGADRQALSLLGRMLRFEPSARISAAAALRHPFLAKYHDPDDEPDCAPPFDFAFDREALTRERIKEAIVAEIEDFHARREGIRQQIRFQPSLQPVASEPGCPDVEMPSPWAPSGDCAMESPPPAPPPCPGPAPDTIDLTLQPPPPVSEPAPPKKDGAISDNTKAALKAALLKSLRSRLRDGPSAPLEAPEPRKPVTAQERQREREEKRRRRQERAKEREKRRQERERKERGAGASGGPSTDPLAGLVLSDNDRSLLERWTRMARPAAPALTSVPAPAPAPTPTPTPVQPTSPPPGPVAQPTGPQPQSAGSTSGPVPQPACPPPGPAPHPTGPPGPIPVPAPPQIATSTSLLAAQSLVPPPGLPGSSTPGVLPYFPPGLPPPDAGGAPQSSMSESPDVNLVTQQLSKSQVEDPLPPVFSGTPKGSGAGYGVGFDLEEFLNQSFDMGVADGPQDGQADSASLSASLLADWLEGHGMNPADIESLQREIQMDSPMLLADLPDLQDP
T22 sequence (Q13554 whole entry): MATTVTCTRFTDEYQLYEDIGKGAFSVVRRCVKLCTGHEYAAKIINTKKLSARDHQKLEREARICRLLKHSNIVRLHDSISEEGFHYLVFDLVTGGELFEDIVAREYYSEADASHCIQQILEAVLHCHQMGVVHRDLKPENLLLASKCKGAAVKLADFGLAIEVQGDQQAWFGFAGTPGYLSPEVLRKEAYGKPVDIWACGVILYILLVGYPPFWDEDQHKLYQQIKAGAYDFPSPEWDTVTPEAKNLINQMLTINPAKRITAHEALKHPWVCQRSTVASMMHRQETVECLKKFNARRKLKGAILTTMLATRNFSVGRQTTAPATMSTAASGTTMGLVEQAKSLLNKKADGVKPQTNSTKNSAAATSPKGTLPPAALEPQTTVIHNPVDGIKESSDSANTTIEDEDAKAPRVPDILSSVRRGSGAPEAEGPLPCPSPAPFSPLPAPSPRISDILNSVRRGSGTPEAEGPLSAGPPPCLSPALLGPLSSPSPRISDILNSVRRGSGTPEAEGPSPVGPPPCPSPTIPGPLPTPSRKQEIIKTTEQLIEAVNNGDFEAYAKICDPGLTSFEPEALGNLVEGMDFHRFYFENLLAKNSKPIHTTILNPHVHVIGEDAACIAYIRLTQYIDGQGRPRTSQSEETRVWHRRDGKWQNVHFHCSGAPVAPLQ
T26 sequence (P54760 16-987): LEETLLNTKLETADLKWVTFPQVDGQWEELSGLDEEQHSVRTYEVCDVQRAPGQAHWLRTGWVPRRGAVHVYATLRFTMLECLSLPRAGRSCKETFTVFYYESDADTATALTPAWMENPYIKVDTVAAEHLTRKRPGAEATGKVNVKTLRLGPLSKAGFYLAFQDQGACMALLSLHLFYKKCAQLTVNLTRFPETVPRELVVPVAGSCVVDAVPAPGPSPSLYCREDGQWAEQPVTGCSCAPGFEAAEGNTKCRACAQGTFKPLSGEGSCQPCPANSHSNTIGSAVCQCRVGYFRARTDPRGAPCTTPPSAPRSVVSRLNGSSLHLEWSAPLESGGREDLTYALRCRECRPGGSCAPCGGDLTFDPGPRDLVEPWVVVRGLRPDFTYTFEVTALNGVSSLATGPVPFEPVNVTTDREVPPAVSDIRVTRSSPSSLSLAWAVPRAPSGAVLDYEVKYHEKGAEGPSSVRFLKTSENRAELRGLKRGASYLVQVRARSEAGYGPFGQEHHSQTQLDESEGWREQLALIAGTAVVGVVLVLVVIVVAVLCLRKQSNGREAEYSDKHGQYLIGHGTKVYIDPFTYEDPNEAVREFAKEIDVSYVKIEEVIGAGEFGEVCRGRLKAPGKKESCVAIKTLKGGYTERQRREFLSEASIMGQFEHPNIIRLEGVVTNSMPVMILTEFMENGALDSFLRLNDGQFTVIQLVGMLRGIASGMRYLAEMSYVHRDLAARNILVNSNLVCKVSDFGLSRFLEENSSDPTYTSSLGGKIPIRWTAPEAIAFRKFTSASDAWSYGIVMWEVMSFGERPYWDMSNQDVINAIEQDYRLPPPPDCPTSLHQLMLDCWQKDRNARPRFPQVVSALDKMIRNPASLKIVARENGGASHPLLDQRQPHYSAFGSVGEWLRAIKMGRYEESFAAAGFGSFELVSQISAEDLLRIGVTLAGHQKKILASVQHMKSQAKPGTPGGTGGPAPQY

In the case of `CN(C)Cc1cccc(Nc2ncc(Cl)c(-c3csc(C(=O)NN4CCOCC4)c3)n2)c1` [SKLB-D18, 4-(5-chloro-2-((3-((dimethylamino)methyl)phenyl)amino)pyrimidin-4-yl)-N-morpholinothiophene-2-carboxamide], the inhibition at 1 µM (NEK2(h)) is reported as 42%, the inhibition at 1 µM (MLK2(h)) is reported as 59% and the inhibition at 1 µM (ULK1(h)) is reported as 49%. The inhibition at 1 µM (GCN2(h)) was 69%, the inhibition at 1 µM (Rsk1(h)) was 51% and the inhibition at 1 µM (PhKγ1(h)) was 63%. It also gave an inhibition at 1 µM (SIK(h)) of 26%, an inhibition at 1 µM (SBK1(h)) of 55% and an inhibition at 1 µM (CLK4(h)) of 68%. For the same compound, the inhibition at 1 µM (MAPK7(h)) was 93%, the inhibition at 1 µM (KDR(h)) was 66% and the inhibition at 1 µM (TSSK4(h)) was 36%. The inhibition at 1 µM (CDKL4(h)) was 66%, the inhibition at 1 µM (PRK1(h)) was 73% and the inhibition at 1 µM (DDR2(h)) was -2%. For the same compound, the inhibition at 1 µM (TRB2(h)) was 71%, the inhibition at 1 µM (Ron(h)) was 58% and the inhibition at 1 µM (TAO3(h)) was 36%. The inhibition at 1 µM (Rsk4(h)) was 63%, the inhibition at 1 µM (IRAK1(h)) was 60% and the inhibition at 1 µM (PRKG2(h)) was 18%. For the same compound, the inhibition at 1 µM (CaMKIIβ(h)) was 44%, the inhibition at 1 µM (CDK18/cyclinY(h)) was 48% and the inhibition at 1 µM (GRK1(h)) was 9%. For the same compound, the inhibition at 1 µM (PRK2(h)) was 64%, the inhibition at 1 µM (EphB4(h)) was 9% and the inhibition at 1 µM (CaMKK1(h)) was 12%. For the same compound, the inhibition at 1 µM (NEK4(h)) was 66%, the inhibition at 1 µM (Tec(h) activated) was 8% and the inhibition at 1 µM (Lck(h)) was 63%. For the same compound, the inhibition at 1 µM (Axl(h)) was 36%, the inhibition at 1 µM (DYRK1B(h)) was 67% and the inhibition at 1 µM (NDR2(h)) was 27%. For the same compound, the inhibition at 1 µM (CK1ε(h)) was 18%, the inhibition at 1 µM (HRI(h)) was 38% and the inhibition at 1 µM (Lyn(h)) was 60%. It also gave an inhibition at 1 µM (PDGFRα(h)) of 37%, an inhibition at 1 µM (Fms(h)) of 34% and an inhibition at 1 µM (TTBK1(h)) of -5%. It also gave an inhibition at 1 µM (PKCε(h)) of 14% and an inhibition at 1 µM (CLK3(h)) of 11%.
